Test results published in PMC6150246, “Design, Synthesis and Preliminary Biological Evaluation of Novel Benzyl Sulfoxide 2-Indolinone Derivatives as Anticancer Agents” (Molecules : A Journal of Synthetic Chemistry and Natural …, 2017).

Tests used:
[1] = system: five human cancer cell lines (HeLa, HepG2, MCF-7, SCC-15, and A549); assay: MTS cytotoxicity assay, across the cancer cell line panel; type: cell-based; details: for IC50: Homo sapiens, average over the cancer cell lines, read-out: average IC50 value (antitumor potential); for anticancer / antiproliferative activity over the cell line panel, in words: MTS, Indo 5 as reference
Source text: (§1) To investigate the relationship between anticancer activity and tyrosine kinase inhibitory activity, these compounds were further evaluated for in vitro cytotoxicity against five cancer cell lines (human cervical carcinoma cell line HeLa, human breast carcinoma cell line MCF-7, human liver carcinoma cell line HepG2, human tongue carcinoma cell line SCC-15, and human lung carcinoma A549) using MTS assay. Indo 5 was also used as a reference compound.
(§2) The five types of human cancer cell lines (HeLa, HepG2, MCF-7, SCC-15, and A549) were cultured aseptically using Dulbecco’s modified Eagle’s medium (DMEM) supplemented with 10% (v/v) fetal bovine serum (FBS) and penicillin (100 units mL^−1)/streptomycin ([…]), at pH 7.2 and 5% CO2 humidified atmosphere at 37 °C. After attaining 80% confluence, the cells were trypsinized with 0.25 trypsin–EDTA and diluted with media to a fixed number of cells.
(§3) Cytotoxic activity was assessed using the standard MTS method by using triplicate assay. The cells were seeded into 96-well plates containing the medium at the density of 4000–6000 cells/mL (100 μL/well). The compounds were dissolved in DMSO to the concentration of 100 mM and diluted in a culture medium to the concentrations needed. After 24 h, the cultured cells were treated with concentrations of synthesized compounds (3.125 μM to 100 μM for tumor cells) for 48 h. After 48 h of incubation, the supernatant was replaced by fresh medium (100 μL/well) and 10 μL MTS reagent ([3-(4,5-dimethylthiazol-2-yl)-5-(3-carboxymethoxyphenyl)-2-(4-sulfophenyl)-2H-tetrazolium, inner salt]) was added to each well. The plate was further incubated for 3 h at 37 °C in 5% CO2. The optical absorbance in individual wells was determined at 492 nm using a microplate reader. The inhibition rates were calculated by the following formula: Inhibition rate (%) = (ODnegative control − ODsample)/(ODnegative control − ODblank) × 100%
(§4) IC50 was calculated using GraphPad Prism Software (GraphPad Prism 5, La Jolla, CA, USA). For each concentration, at least three wells were performed to calculate the average parameter.

[2] = system: human breast carcinoma cell line MCF-7; assay: MTS cytotoxicity assay, MCF-7; type: cell-based; details: for IC50: Homo sapiens, MCF7, 48 h treatment
Source text: as §1, §2, §3, §4

tyrosine kinase = assay: Tyrosine kinase inhibitory activity assay (self-made ELISA kit); type: biochemical; details: tyrosine kinase tissue extract, 37 °C 30 min
Method: The 16 designed compounds were first evaluated for tyrosine kinase inhibitory activity using ELISA assay. Indo 5 was used as a reference compound. The kit was self-made and is a very effective and economical method for preliminary tyrosine kinase inhibitory activity evaluation.
The tyrosine kinase inhibitory activity assay was performed as described in the literature. Details of the experimental procedures are presented in Supplementary Materials associated with this article. The IC50 was calculated using GraphPad Prism Software (GraphPad Prism 5, La Jolla, CA, USA). For each concentration, at least three wells were performed to calculate the average parameter.
100μL to each well. The plate was covered with its lid, and incubated at 4℃ overnight (10-12 hours). Then it was washed with 200μL elution buffer once, and dried at 37℃ for 2 h. After that, it was washed with 10mM PBS once, dried at room temperature, and then stored at 4℃ […]
2.1.5. Groups: Blank control: 60μL 1×tyrosine kinase buffer + 50μL 1×tyrosine kinase buffer containing ATP; Negative control: 10μL 1×tyrosine kinase buffer + 50μL 1×tyrosine kinase buffer containing tissue extract + 50μL 1×tyrosine kinase buffer containing ATP; Positive control: 10μL 1×tyrosine kinase buffer containing L029 + 50μL 1×tyrosine kinase buffer containing tissue extract + 50μL 1×tyrosine kinase buffer containing ATP; Vehicle control: 10μL 1×tyrosine kinase buffer containing DMSO + 50μL 1×tyrosine kinase buffer containing tissue extract + 50μL 1×tyrosine kinase buffer containing ATP; Compounds to be screened: 10μL 1×tyrosine kinase buffer containing compounds to be tested + 50μL 1× tyrosine kinase buffer containing tissue extract + 50μL 1×tyrosine kinase buffer containing ATP. (First, L029 and the compounds were allowed to interact with the tyrosine kinase tissue extract at room temperature for 10 min in advance, and did the same to the Blank control and the Vehicle control, then 50μL 1×tyrosine kinase buffer containing ATP was added to […]
2.1.6. Tyrosine kinase inhibitory activity assay: 1×tyrosine kinase buffer was prepared by evenly mixing 1 mL 10× tyrosine kinase buffer with 9 mL DDW. The tissue extract was diluted with 1×tyrosine kinase buffer appropriately, mixed with it gently and evenly, and placed on ice. ATP stock solution was mixed with 1×tyrosine kinase buffer at the final concentration of 3mM , and placed on ice. The microplate was added in respective wells with the groups formulated as above, covered with the lid, and incubated at 37℃ for 30 min. The microplate was washed with 200μL elution buffer and tapped until the residual buffer was removed, and this procedure was repeated for five times. To each well, 100μL antibody diluent (antibody elution buffer diluted at a ratio of 1:2000) was added. The microplate was covered with the lid, and incubated at room temperature for 30 min. OPD solution was prepared by addition of 4 mg OPD into a mixture of 4.86 mL 0.1 mol/L citric acid solution and 5.14 mL 0.2 mol/L Na2HPO4 solution, followed by addition of 50μL 30% H202 to allow for complete dissolution, and then was protected from light. The antibody solution was […]
removed. The microplate was washed with 200μL elution buffer and tapped until the residual buffer was removed, and this procedure was repeated for five times. 100μL freshly prepared OPD was added, and reacted at room temperature light tight for precisely 7 min. Negative […]
100μL 2.5 N H2SO4 was added to terminate the reaction. OD
2.1.7. Sample screening: Samples were screened preliminarily by using triplicate assay. The effect of the samples on tyrosine kinase inhibitory activity was tested, and the inhibition rate was calculated. Inhibition rate (%)=(ODnegative control – ODsample) / (ODnegative control* – ODblank) × 100%; *While calculating inhibition rate of positive drugs, ODnegative control in the equation was replaced with ODvehicle control to exclude the influence of DMSO on tyrosine kinase activity. […]
2. S. Praveen Kumar, Jiri Gut, Rita C. […]

[3] = system: human lung carcinoma A549; assay: MTS cytotoxicity assay, A549; type: cell-based; details: Homo sapiens, A549, 48 h treatment
Source text: as §1, §2, §3, §4

[4] = system: human tongue carcinoma cell line SCC-15; assay: MTS cytotoxicity assay, SCC-15; type: cell-based; details: for IC50: Homo sapiens, SCC-15, 48 h treatment
Source text: as §1, §2, §3, §4

[5] = system: human liver carcinoma cell line HepG2; assay: MTS cytotoxicity assay, HepG2; type: cell-based; details: for IC50: Homo sapiens, HepG2, 48 h treatment
Source text: as §1, §2, §3, §4

[6] = system: human cervical carcinoma cell line HeLa; assay: MTS cytotoxicity assay, HeLa; type: cell-based; details: for IC50: Homo sapiens, HeLa, 48 h treatment
Source text: as §1, §2, §3, §4

Row | melting point [°C] | IC50 (tyrosine kinase) [µM] | SMILES | IC50 [1] [µM] | anticancer / antiproliferative activity over the cell line panel, in words [1] | activity against the MCF-7 cell line, in words [2] | IC50 [2] [µM] | IC50 [3] [µM] | activity against the SCC-15 cell line, in words [4] | IC50 [4] [µM] | activity against the HepG2 cell line, in words [5] | IC50 [5] [µM] | IC50 [6] [µM] | activity against the HeLa cell line, in words ([6]; Indo 5 as reference)
1 | 195 to 196 | 1.34 ± 0.03 | O=C1Nc2ccccc2/C1=C/[S+]([O-])Cc1ccc(Br)cc1 (stereo not shown) [Compound 6j, (Z)-3-(((4-Bromobenzyl)sulfinyl)methylene)indolin-2-one] | < 40 | comparable antiproliferative activity against four cancer cell lines compared with compound Indo 5 | good antitumor activity | 30.77 ± 0.29 | 44 ± 1.89 | considerable cytotoxic activity | 34.9 ± 0.34 | considerable cytotoxic activity | 36.9 ± 0.49 | 24.1 ± 0.52 | –
2 | 200 to 201 | 2.69 ± 0.29 | O=C1Nc2ccc(Br)cc2/C1=C/[S+]([O-])Cc1ccccc1 (stereo not shown) [Compound 6o, (Z)-3-((Benzylsulfinyl)methylene)-5-bromoindolin-2-one] | < 40 | comparable antiproliferative activity against four cancer cell lines compared with compound Indo 5 | good antitumor activity | 32.3 ± 0.77 | 54.9 ± 0.66 | considerable cytotoxic activity | 28.6 ± 1.58 | considerable cytotoxic activity | 54.4 ± 0.88 | 18.2 ± 0.66 | stronger activity than Indo 5
